In ChEMBL document CHEMBL5321210, “N-adamantyl-anthranil amide derivatives: New selective ligands for the cannabinoid receptor subtype 2 (CB2R)” (Eur J Med Chem, 2023):
Activity calls are given as the source filed them. The rule behind the calls is not given here.

How the values were obtained:
[1] = test system: THP-1; test: Antiinflammatory against LPS-activated human THP-1 monocytes assessed as decrease in IFN-gamma production at 10 uM incubated for 24 hrs in the presence of JTE907 by ELISA coupled qRT-PCR analysis; format: functional, cell-based
[2] = test system: THP-1; test: Antiinflammatory activity in human THP-1 monocytes assessed as decrease in TNF-alpha production at 10 uM incubated for 24 hrs in the presence of N-(adamantan-1-yl)-4-(pentylamino)-[1,1'-biphenyl]-3-carboxamide by ELISA coupled qRT-PCR analysis; format: functional, cell-based
[3] = test system: THP-1; test: Antiinflammatory activity in LPS-activated PMA-differentiated human THP-1 macrophages assessed as decrease in IFN-gamma production at 1 to 10 uM incubated for 24 hrs in the presence of JTE907 by ELISA coupled qRT-PCR analysis; format: functional, cell-based; conditions: dose 1-10 µM
[4] = test system: THP-1; test: Antiinflammatory activity against LPS-activated PMA-differentiated human THP-1 macrophages assessed as decrease in IFN-gamma production at 1 to 10 uM incubated for 24 hrs by ELISA coupled qRT-PCR analysis relative to control; format: functional; parameters: scale not given: the % may be the effect or the level left; conditions: dose 1-10 µM

Compound	Activity [1]	Activity [2]	Activity [3]	Activity [4]
O=C(NC1CCCCC1)c1cn(CCN2CCOCC2)c2cc(Cl)ccc2c1=O	inactive	inactive	–	–
CCCCCNc1ccccc1C(=O)NC12CC3CC(CC(C3)C1)C2	–	–	inactive	70%
